Consider 15 molecules from patent publication US9238658B2, “Substituted piperidinyl-carboxamide derivatives useful as SCD 1 inhibitors” (Janssen Pharmaceutica NV, priority 2011, dated 2016).

The target in experiment [1] is SCD1 (Rattus norvegicus (Rat), UniProt P07308). Kind of experiment: SCD1 enzymatic assay in rat liver microsomes (RLM). The class given is biochemical. The method, then:
Step 1: Preparation of Rat Liver Microsome (RLM)
Sprague Dawley rats from Charles River (200-225 g) underwent 2-cycle of fast-re-feeding (24-hour fast followed by 24-hour feeding with fat-free high carbohydrate diet, Research Diet, D00042802). The livers were removed and homogenized 1:4 (w/v) with pre-chilled, homogenizing buffer (10 mM Tris-HCl, 0.25 M sucrose, 1 mM EDTA, pH 7.4, supplemented with protease inhibitor cocktail). The homogenate was spun at 12,000×g for 15 min at 4° C. The supernatant was then re-centrifuged at 100,000×g for 60 min at 4° C. The pellet was re-suspended in 2 ml pre-chilled […] potassium phosphate buffer, pH 7.2, 10 mM EDTA at a concentration of 20 mg/ml. The resulting rat liver microsome (RLM) preparation was stored at […].
Step 2: SCD1 Enzymatic Assay in RLM:
The SCD1 enzymatic assay was done in a volume of 50 μL using 10 μg of RLM (prepared as described above) in a 96-well polypropylene plate (enzyme reaction buffer contains 0.1 M K-Phosphate Buffer, 10 mM ATP, 6 mM MgCl2, 1 mM CoA, 1 mM β-NADH, 1.6 mM L-glutathione, 20 μM Stearoyl-CoA). Stearoyl-[9,10-^3H]—CoA (ARC-0390, 1 mCi/mL, 60 Ci/mmol,) was added at a final concentration of 2 μCi/mL. Test compound was then added to the reaction mixture at the selected concentration. After incubation at room temperature for 2 hours, 5 μL 1 N HCl was added to stop the reaction, followed by addition of 25 μL of 10% charcoal. The reaction mixture was then transferred to 96-well Multiscreen plate (Millipore, Cat# MSFCN6B50). [^3H2O] was collected into Opti-plate (PE, Cat #6005290) by centrifuge, at 1,000 rpm for 2 minutes. 150 μL Microscint 40 (PE, cat #6013641) was then added to each well and counted on Topcount for [^3H] counts per minute (cpm). The measured cpm values were fitted with Sigmoidal dose-response curve fit with Graphpad Prism.

The target in experiment [2] is T1, SCD1 (Homo sapiens (Human), UniProt O00767). Kind of experiment: SCD1 14C-palmitate assay in A431 cells. The class given is cell-based. The following applies: read-out: A431 cells 14C-PA IC50. The method, then:
Human epithelial carcinoma A431 cells were seeded at 400,000 cells per well in 48-well tissue culture plate and treated with 2 cycles of fasting in low glucose medium (DMEM, Cellgro #10-014-CV, 1 g/L glucose, 2% Charcoal Filtered FBS) for 24 hours; and re-feeding with high glucose medium for 24 hours (DMEM, Cellgro #10-013-CM, 4.5 g/L glucose, 10% Charcoal Filtered FBS and 0.05 mg/mL Lilly Humulin R, Cat.#, HI-210). Prior to running the assay, the cells were washed twice with high glucose medium (400 μL), followed by addition of 250 μL assay buffer (DMEM, 4.5 g/L glucose, 0.05 mg/mL Human Insulin, 0.1% Fatty Acid Free BSA) to each well. Then, 100 μL of assay buffer containing 20 μM Palmitic Acid, 0.05 μCi ^14C Palmitic Acid (Perkin Elmer, NEC075H) and test compound (at selected concentration) was added to each well. The cells were then Incubated at 37° C. and 5% CO2 tissue culture incubator for 4 hours, followed by extensive washes with pre-chilled PBS. The cell plates were then frozen at −20° C. overnight. After thawing out the plates, 100 μL of 1N KOH was added to each well and the plates were incubated at 37° C. for 30 mins. Cell lysates were transferred to 1 mL Eppendorf tubes and incubated at 95° C. for 1 hour, followed by addition of 10 μL formic acid and 220 μL acetonitrile. The tubes were then centrifuged at 12,000 rpm and the supernatant dried under N2 for 2-3 hours. Dried extract was re-suspended in 60 μL hexane and loaded onto TLC plates (pre-coated with 10% AgNO3 in acetonitrile). The TLC plates were placed into glass running chamber containing 200 mL running solution (100 mL running solution: 92.5 mL chloroform, 6 mL methanol, 750 μL acetic acid, 750 μL dH2O). After running, the TLC plates were air dried and scanned on Bioscan AR-2000 for quantification of ^14C-palmitioleate and ^14C-palmitate peaks. Area under the curve of the peaks were used to calculate product/substrate ratio, an index of SCD1 activity.

Experiment [3] deals with T1, SCD1. Kind of experiment: SCD1 13C-palmitic acid assay in A431 cells. The class given is cell-based. The following applies: read-out: A431 cells 13C-PA IC50. The method, then:
Human epithelial carcinoma A431 cells were seeded at 100,000 cells/well in complete growth medium (DMEM, Cellgro #10-013-CM, 4.5 g/L glucose, 10% FBS) in the presence of 0.05 mg/mL human insulin (Hannas Pharmaceutical Supply Co Inc, Humanlin 100 U/ml, 4 mg/ml) in 96-well tissue culture plate. […] The cells were then returned to the tissue culture incubator (37° C. and 5% CO2) for 4 hrs. At the end of incubation, the cells were washed three times with 200 μL/well Hanks buffer (HBSS) and then stored at −20° C. until extraction.
For fatty acid extraction, after thawing out the plates, 40 μL of 1N KOH (containing 5 μM of internal standard 7,7,8,8-D4 palmitate) was added to each well and cell plates were incubated at 37° C. for 30 minutes. […] Acetonitrile (100 μL) was then added to extract fatty acids, followed by centrifugation at 3000 rpm for 10 minutes. 75 μL of extract was then transferred to a new glass vial in a 96-well cluster plate. 5 μL was injected for LC/MS analysis for detection of ^13C-palmitic acid and ^13C-palmitoleic acid. Formation of product ^13C-palmitoleic acid was determined as an index of SCD1 activity.
LC/MS analysis was performed as following. An Agilent 1100 Liquid Chromatographic System (Palo Alto, Calif.) consisting of a binary pump, a degasser and an autosampler was used. Separation of free fatty acids was performed on a Zorbax SB—C8 column (2.1×50 mm, particle size=3.5 μm). An isocratic elution was carried out with 10 mM triethylamine acetate in water:acetonitrile (3:7) at a flow rate of 0.3 mL/min. The column temperature was set at 30° C. and the sample injection volume was 5 μL. The LC run cycle was 4 min, A Micromass triple-quadrupole Quattro Micro mass […] (Waters, Beverly, Mass.) was interfaced with the LC system through a Z-spray electrospray ion source and was operated in the negative ion mode. Nitrogen was used as nebulizing gas, desolvation gas and cone curtain gas and argon was chosen as collision gas. The triple quadrupole MS source parameters were set as follows: capillary voltage, 3200V; cone voltage, 25V; extractor 2V, source temperature, 120° C.; desolvation temperature, 300° C.; cone gas flow, 50 L/h; and desolvation gas flow, 700 L/h. […] MassLynx software version 4.0 was used for system control and data processing. The signal of U—^13C-palmitoleic acid was normalized to an internal standard.

Several values for one entry are separate records, joined by “and”; a condition that tells them apart may be missing. Equal entries are not always repeated.

T1 sequence (O00767 whole entry): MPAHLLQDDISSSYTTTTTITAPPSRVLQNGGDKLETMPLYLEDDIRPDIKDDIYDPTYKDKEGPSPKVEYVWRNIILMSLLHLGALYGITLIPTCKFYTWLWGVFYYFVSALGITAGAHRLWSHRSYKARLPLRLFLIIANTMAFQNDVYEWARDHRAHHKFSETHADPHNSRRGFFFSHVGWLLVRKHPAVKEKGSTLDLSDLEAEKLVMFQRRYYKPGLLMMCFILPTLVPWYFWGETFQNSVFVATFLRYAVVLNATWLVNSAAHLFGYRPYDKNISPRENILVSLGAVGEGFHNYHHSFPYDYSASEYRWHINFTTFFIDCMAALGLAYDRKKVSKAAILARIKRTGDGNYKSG
SCD1 (Rattus norvegicus (Rat), UniProt P07308), sequence (P07308 whole entry): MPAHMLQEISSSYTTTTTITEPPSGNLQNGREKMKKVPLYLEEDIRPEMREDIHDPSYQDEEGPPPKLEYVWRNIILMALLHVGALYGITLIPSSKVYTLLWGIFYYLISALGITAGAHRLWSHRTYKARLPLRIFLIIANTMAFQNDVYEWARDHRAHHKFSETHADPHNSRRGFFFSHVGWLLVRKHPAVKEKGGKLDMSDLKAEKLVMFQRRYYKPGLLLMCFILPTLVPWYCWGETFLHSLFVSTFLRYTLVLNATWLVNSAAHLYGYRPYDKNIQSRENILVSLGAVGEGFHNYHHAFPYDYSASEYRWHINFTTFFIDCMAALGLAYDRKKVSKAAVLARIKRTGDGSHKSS

What is called IC50 is the concentration needed to halve the response being measured. What is called inhibition is the drop in the measured response relative to a control, in per cent. As to `CNC(=O)c1cccc(NC(=O)N2CCC(n3ccc4ccccc43)CC2)c1` [Compound 2, 4-(1H-indol-1-yl)-N-(3-(methylcarbamoyl)phenyl)piperidine-1-carboxamide], the IC50 was 170 nM at SCD1 [1]; 376 nM and 384 nM at SCD1 [2]. The inhibition at 1 µM on SCD1 [1] (1 μM test compound) was 84%.
Take `Cc1csc(NC(=O)N2CCC(N3CCc4ccccc43)CC2)n1` [Compound 3, 4-(indolin-1-yl)-N-(4-methylthiazol-2-yl)piperidine-1-carboxamide]: the IC50 at SCD1 [1] was 161 nM and 145 nM. Moreover, at SCD1 [1] (1 μM test compound), the “% Inh. @ 1 μM” value worked out at 76% and the inhibition at 1 µM was 70%. Further, the IC50 at SCD1 [2] was 804 nM and 379 nM.
As for `Cc1csc(NC(=O)N2CCC(n3ccc4ccccc43)CC2)n1` [Compound 4, 4-(1H-indol-1-yl)-N-(4-methylthiazol-2-yl)-piperidine-1-carboxamide], the IC50 against SCD1 [1] is 573 nM and 502 nM; on SCD1 [2], 209 nM and 325 nM. Also, the inhibition at 1 µM against SCD1 [1] (1 μM test compound) was found to be 70%.
On to `CNC(=O)c1cccc(NC(=O)N2CCC(c3noc4ccc(F)cc34)CC2)c1` [Compound 5], for which the IC50 on SCD1 [1] is 413 nM; on SCD1 [2] it was 711 nM and 726 nM. For the same molecule, the inhibition at 1 µM on SCD1 [1] (1 μM test compound) is 74%.
In the case of `CCCc1nc2ccc(NC(=O)N3CCC(c4noc5ccc(F)cc45)CC3)cc2s1` [Compound 9, 4-(5-fluorobenzo[d]isoxazol-3-yl)-N-(2-propylbenzo[d]thiazol-6-yl)piperidine-1-carboxamide], the 50% inhibitory concentration (IC50) against SCD1 [1] was 444 nM; at SCD1 [2] it was 640 nM. The inhibition at 1 µM against SCD1 [1] (1 μM test compound) is 79%.
In the same order, the values of `CNC(=O)c1cccc(NC(=O)N2CCC(N3CCc4ccccc43)CC2)c1` [Compound 12, 4-(indolin-1-yl)-N-(3-(methylcarbamoyl)phenyl)piperidine-1-carboxamide] are 151 nM, 755 nM and 82%.
In the same order, the values of `Cc1csc(NC(=O)N2CCC(N3CCCc4ccccc43)CC2)n1` [Compound 13, 4-(3,4-dihydroquinolin-1(2H)-yl)-N-(4-methylthiazol-2-yl)piperidine-1-carboxamide] are 491 nM, 848 nM and 81%.
For `O=C1OCc2ccc(NC(=O)N3CCC(N4CCc5ccc(F)cc54)CC3)cc21` [Compound 47, 4-(6-fluoroindolin-1-yl)-N-(3-oxo-1,3-dihydroisobenzofuran-5-yl)piperidine-1-carboxamide], the half-maximal inhibitory concentration (IC50) against SCD1 [1] worked out at 17 nM; on SCD1 [3], 27 nM. Moreover, at SCD1 [1] (1 μM test compound), the inhibition at 1 µM was determined as 83%.
For `O=C(Nc1ncc(CCO)s1)N1CCC(N2CCc3ccc(F)cc32)CC1` [Compound 50, 4-(6-fluoroindolin-1-yl)-N-(5-(2-hydroxyethyl)thiazol-2-yl)piperidine-1-carboxamide], in that order: 8 nM, 6 nM and 102%.
In the same order, the values of `O=C(Nc1nc(CCO)cs1)N1CCC(c2noc3ccc(F)cc23)CC1` [Compound 54, 4-(5-fluorobenzo[d]isoxazol-3-yl)-N-(4-(2-hydroxyethyl)thiazol-2-yl)piperidine-1-carboxamide] are 29 nM, 38 nM and 95%.
Turning to `O=C(Nc1ncc(CCO)s1)N1CCC(c2noc3ccc(F)cc23)CC1` [Compound 55, 4-(5-fluorobenzo[d]isoxazol-3-yl)-N-(5-(2-hydroxyethyl)thiazol-2-yl)piperidine-1-carboxamide], the IC50 against SCD1 [1] is 11 nM; at SCD1 [3], 30 nM. Moreover, the inhibition at 1 µM on SCD1 [1] (1 μM test compound) was 92%.
Turning to `O=C(Nc1nc2c(s1)CC(O)CC2)N1CCC(c2noc3ccc(F)cc23)CC1` (stereo not shown) [Compound 60, 4-(5-fluorobenzo[d]isoxazol-3-yl)-N-(6-hydroxy-4,5,6,7-tetrahydrobenzo[d]thiazol-2-yl)piperidine-1-carboxamide], the values for the IC50 against SCD1 [1] and at SCD1 [3] were 39 nM and 1 nM, respectively. The inhibition at 1 µM on SCD1 [1] (1 μM test compound) was 98%.
In the same order, the values of `O=C(Nc1nc2c(s1)COCC2)N1CCC(N2CCc3ccc(F)cc32)CC1` [Compound 61, N-(6,7-dihydro-4H-pyrano[4,3-d]thiazol-2-yl)-4-(6-fluoroindolin-1-yl)piperidine-1-carboxamide] are 204 nM, 17 nM and 99%.
In the same order, the values of `O=C(Nc1nc2c(s1)CCCC2)N1CCC(N2CCc3ccc(F)cc32)CC1` [Compound 62, 4-(6-fluoroindolin-1-yl)-N-(4,5,6,7-tetrahydrobenzo[d]thiazol-2-yl)piperidine-1-carboxamide] are 347 nM, 76 nM and 68%.
On to `O=C(Nc1nc2c(s1)COCC2)N1CCC(c2noc3ccc(F)cc23)CC1` [Compound 63, N-(6,7-dihydro-4H-pyrano[4,3-d]thiazol-2-yl)-4-(5-fluorobenzo[d]isoxazol-3-yl)piperidine-1-carboxamide], for which the IC50 is 85 nM on SCD1 [1] and 176 nM on SCD1 [3]. Besides, at SCD1 [1] (1 μM test compound), the inhibition at 1 µM came out at 55%.
